Data on 28 compounds can be found in US7511041B2, “Fused azole-pyrimidine derivatives” (Bayer Pharmaceuticals Corporation, priority 2002, dated 2009).

For orientation: melting point means the temperature of the solid-liquid transition. `COc1cc2c(c(OC)c1C)N=C(/C=C(\O)c1ccc3[nH]cnc3c1)N1CCN=C21.Cl` [Example 1-67] returned a melting point above 285 °C.

For the compound `COc1cccc2c1N=C(/C=C(\O)c1cccnc1)N1CCN=C21.Cl` [Example 1-69], the melting point came out at 285 °C.

With `Cl.O/C(=C\C1=Nc2c(Br)cccc2C2=NCCN12)c1cccnc1` [Example 1-74], the melting point turned out to be 246 °C.

`Cc1cccc2c1N=C(/C=C(\O)c1cccnc1)N1CCN=C21.Cl` [Example 1-76]: the melting point was above 290 °C.

Regarding `CC(=O)Nc1ccc(/C(O)=C/C2=Nc3c(C)cccc3C3=NCCN23)cn1.Cl` [Example 1-78], the melting point is above 285 °C.

Compound `Cl.O/C(=C\C1=Nc2c(cccc2C(F)(F)F)C2=NCCN12)c1cccnc1` [Example 1-81] gave a melting point above 290 °C.

`Cl.O/C(=C\C1=Nc2c(OCCN3CCOCC3)cccc2C2=NCCN12)c1cccnc1` [Example 1-85] gave a melting point of 261 to 262 °C.

In the case of `Cl.O/C(=C\C1=Nc2c(OCC3CC3)cccc2C2=NCCN12)c1cccnc1` [Example 1-89], the melting point is above 300 °C.

Take `Cl.O/C(=C\C1=Nc2cc(N3CCOCC3)ccc2C2=NCCN12)c1cccnc1` [Example 1-95]: the melting point was above 300 °C.

As to `CC(=O)Nc1ccc(/C(O)=C/C2=Nc3cc(N4CCOCC4)ccc3C3=NCCN23)cn1.Cl` [Example 1-97], the melting point turned out to be 246 °C.

For the compound `Cl.O/C(=C\C1=Nc2cc(N3CCOCC3)ccc2C2=NCCN12)c1cncc(O)c1` [Example 1-99], the melting point is 312 °C (dec.).

Regarding `Cl.O/C(=C\C1=Nc2cc(N3CCOCC3)ccc2C2=NCCN12)c1ccc2[nH]cnc2c1` [Example 1-101], the melting point is 286 °C (dec.).

As for `O/C(=C\C1=Nc2cc(N3CCN(Cc4ccccc4)CC3)ccc2C2=NCCN12)c1cccnc1` [Example 1-103], the melting point was found to be 257 °C.

Turning to `CC(=O)Nc1ccc(/C(O)=C/C2=Nc3cc(N4CCN(C)CC4)ccc3C3=NCCN23)cn1.Cl` [Example 1-106], the melting point is 280 °C (dec.).

Turning to `Cl.O/C(=C\C1=Nc2cc(CN3CCOCC3)ccc2C2=NCCN12)c1cccnc1` [Example 1-112], the melting point was found to be 242 °C.

In the case of `CC(=O)Nc1ccc(/C(O)=C/C2=Nc3cc(CN4CCOCC4)ccc3C3=NCCN23)cn1.Cl` [Example 1-114], the melting point was 260 °C.

With `O/C(=C\C1=Nc2cc(Cl)ccc2C2=NCCN12)c1cccnc1` [Example 1-117], the melting point is 280 °C (dec.).

Regarding `Cc1ccc2c(c1)N=C(/C=C(\O)c1cccnc1)N1CCN=C21.Cl` [Example 1-120], the melting point is above 330 °C.

On to `COc1ccc2c(c1)C1=NCCN1C(/C=C(\O)c1cccnc1)=N2.Cl` [Example 1-127], for which the melting point was above 300 °C.

On to `O/C(=C\C1=Nc2ccc(Cl)cc2C2=NCCN12)c1cccnc1` [Example 1-130], for which the melting point is above 330 °C.

Compound `Cc1ccc2c(c1)C1=NCCN1C(/C=C(\O)c1cccnc1)=N2.Cl` [Example 1-132] gave a melting point above 290 °C.

As to `Cl.O/C(=C\C1=Nc2ccccc2C2=NCCN12)c1cccnc1` [Example 1-135], the melting point was 260 °C (dec.).

In turn, `Cc1ccc(/C(O)=C/C2=Nc3ccccc3C3=NCCN23)cn1.Cl` [Example 1-137] came in with a melting point above 300 °C.

Consider `Cl.O/C(=C\C1=Nc2ccccc2C2=NCCN12)c1cnccn1` [Example 1-142], for which the melting point fell in the range of 217 to 222 °C.

`Cl.O/C(=C\C1=Nc2ccccc2C2=NCCN12)c1ccco1` [Example 1-144] returned a melting point above 300 °C.

`Cl.O/C(=C\C1=Nc2ccccc2C2=NCCN12)c1cccs1` [Example 1-147] showed a melting point above 300 °C.

Regarding `Cl.O/C(=C\C1=Nc2ccccc2C2=NCCN12)c1ccno1` [Example 1-153], the melting point was 245 °C (dec.).

`Cl.O/C(=C\C1=Nc2ccccc2C2=NCCN12)c1ccccn1` [Example 1-174] returned a melting point of 235 to 240 °C.
